Where no end group is shown, it is not given here. [invdT] = inverted (3'-3') thymidine
Columns and labels:
CNE2 tumor = assay: Chick embryo chorioallantoic membrane (CAM) tumor xenograft model; type: in vivo; conditions: 50 μM topically, daily; p<0.05
Source text: Cell lines. Human nasopharyngeal cancer cell line CNE2 and human melanoma cell line Mewo were used for tumor inoculation.
Chicken embryo CAM preparation. To apply cells onto the CAM of 10-day old chick embryos, a 2-cm diameter wide window was opened in the flat pole of the eggshell with an electric drill equipped with a 0.3-mm thick×22-mm diameter Carborundum disc. The shell window was removed with forceps. The inner shell membrane was carefully punctured with a fine sterile forcep and removed to expose the underlying CAM. A small portion of the CAM was then gently traumatized by laying a strip of lens tissue (1-cm wide) on the surface of the CAM and then removing it immediately.
Inoculation, closure & incubation. The inoculum (1×10^6 cells/egg for CNE2 cell line and 3×10^6 cells/egg for Mewo cell line in 50 μl of blank medium) was applied onto the small patch of traumatized CAM. Following inoculation, the window was covered with a 35 mm tissue culture dish and sealed with scotch tape. The embryos were returned to the incubator in an upright position and allowed to incubate for seven additional days, with daily monitoring.
Peptide treatment & assessment of growth inhibitory effects. The treatment was initiated two days after tumor inoculation.
The eggs were randomized into 4 treatment groups, with each group comprising at least 4 biological replicates. […]

[1] = system: KRIP-1-associated co-activating function on GAL4-TRIP-Br transcriptional activity; assay: GAL4-TRIP-Br/KRIP-1 luciferase reporter assay in U2OS cells; type: cell-based, human; conditions: 50 μM decoy peptide
Method: DNA Transfection and Sequential β-Galactosidase/Luciferase Assay. For luciferase reporter assays, U2OS cells were cultured in 6-well dishes and transfected 24 h later with various reporter plasmids by the calcium precipitation method as previously described (Martin, K., et al. Nature 375, 691-694 (1995)). 24 h following precipitate removal, cells were exposed for 5 h to either vehicle (0.5% DMSO) or 50 μM of decoy peptide, prior to harvesting. Cells were scraped in 200 μl of lysis buffer and a single 10 μl aliquot of lysate was immediately used for sequential measurement of β-galactosidase and luciferase activity using the Dual Light System (Tropix). For protein overexpression experiments, U2OS cells were cultured in 6-well plates at a density of 1×10^5 cells/well and transfected 24 h later with Superfect reagent (QIAGEN).
FIG. 1: TRIP-Br decoy peptides antagonize KRIP-1/TRIP-Br PHD-bromodomain interactions. […] GAL4-KRIP-1 was specifically immunoprecipitated by the agarose-conjugated anti-GAL4 antibody (Lanes 3-5 & 7–10) but not by the non-specific control anti-cyclin E antibody (Lane 6); (B) Antagonism of PHD-bromodomain interactions in vivo. U2OS cells were transiently transfected with 0.4 μg of the indicated GAL4 expression constructs and 1.2 μg of pMT3A/KRIP-1, along with 0.4 μg of the minimal luciferase reporter pG5-GL3 and 0.1 μg of the control reporter pCMV/β-gal. […]

hTRIP-Br2 mRNA = assay: Semi-quantitative RT-PCR of intact hTRIP-Br2 transcripts in WI-38 cells; type: cell-based, human; conditions: WI-38, 0.1 μM, 16 h post-stimulation with 10% FBS
Method: (§1) DNA enzyme transfection. WI-38 cells were rendered quiescent by cultivation in serum-free medium for 72 h before being transfected with DNA enzyme (0.1 μM) using Superfect as reported previously (Santiago, F. S., et al. Nat Med 5, 1264-1269 (1999)) in accordance to manufacturer's recommendations (Qiagen).
(§2) Semi-quantitative RT-PCR. Following various treatments, WI-38 cells in 6-well culture dish were subjected to total RNA extraction using the TRIZOL® Reagent (Life Technologies). Total RNA (4 μg) was reversed transcribed using oligo-dT and M-MLV reverse transcriptase in a total reaction volume of 20 μl. Polymerase Chain Reactions (PCR) were carried out on 3 μl cDNA sample in the presence of […] deoxyribonucleotide triphosphates (dNTPs) and 40 μM of specific primer pairs in a total reaction volume of 50 μl. […] Post-PCR samples were analyzed by agarose gel electrophoresis.
(§3) FIG. 11: (A) hTRIP-Br1 and hTRIP-Br2 expression is serum-inducible. […] At 24 h post-serum re-stimulation, semi-quantitative RT-PCR analysis was performed on total RNA to assess hTRIP-Br1 and hTRIP-Br2 expression. β-actin was included as an internal control. […] Semi-quantitative RT-PCR analysis was performed on total RNA to assess hTRIP-Br1 and hTRIP-Br2 expression. β-actin was included as an internal control. […]

hTRIP-Br1 mRNA = assay: Semi-quantitative RT-PCR of intact hTRIP-Br1 transcripts in WI-38 cells; type: cell-based, human; conditions: WI-38, 0.1 μM, 16 h post-stimulation with 10% FBS
Method: as §1, §2, §3

Substance	growth of CNE2 tumor (tumour weight) (CNE2 tumor)	KRIP-1-associated co-activating function on GAL4-TRIP-Br transcriptional activity [1]	serum-inducible steady-state hTRIP-Br2 mRNA level (hTRIP-Br2 mRNA)	serum-inducible steady-state hTRIP-Br1 mRNA level (hTRIP-Br1 mRNA)
ERQIKIWFQNRRMKWKKTGFLTDLTLDDILFADID (ERQIKIWFQNRRMKWKKTGFLTDLTLDDILFADID-NH2) [*Br2]	significantly inhibited the growth of CNE2 tumor	complete abolishment	–	–
5′-T TACCCAACAGGCTAGCTACAACGAATATCACA-3′ (DNA TTACCCAACAGGCTAGCTACAACGAATATCACA; DNA, 3' [invdT], backbone not given here) [E-Br2]	–	–	efficiently down-regulated	–
5′-T TGCTCAGCAGGCTAGCTACAACGACTTGCTCA-3′ (DNA TTGCTCAGCAGGCTAGCTACAACGACTTGCTCA; DNA, 3' [invdT], backbone not given here) [E-Br1]	–	–	–	efficiently down-regulated
ERQIKIWFQNRRMKWKKATGCLLDDGLEGLFEDID (ERQIKIWFQNRRMKWKKATGCLLDDGLEGLFEDID-NH2) [*Br1]	significantly inhibited the growth of CNE2 tumor	complete abolishment	–	–
